Measurements reported in US12421249B2, “Inhibitors of APOL1 and methods of using same” (Vertex Pharmaceuticals Incorporated, priority 2020, dated 2025).

Key:
APOL1 G1 = biological target: T1, APOL1 G1 (Homo sapiens, UniProt O14791, I384M/S342G); experiment: Trypanosoma brucei brucei Lysis Assay Using APOL1 Recombinant Protein (AlamarBlue viability readout); type: cell-based; details: Trypanosome Assay; for IC50: IP50 = IC50 for cell proliferation, read-out: Trypanosome Assay IP50; for Emax: read-out: Trypanosome Assay Max Activity (%)
T1 sequence (O14791 28-398 S342G/I384M): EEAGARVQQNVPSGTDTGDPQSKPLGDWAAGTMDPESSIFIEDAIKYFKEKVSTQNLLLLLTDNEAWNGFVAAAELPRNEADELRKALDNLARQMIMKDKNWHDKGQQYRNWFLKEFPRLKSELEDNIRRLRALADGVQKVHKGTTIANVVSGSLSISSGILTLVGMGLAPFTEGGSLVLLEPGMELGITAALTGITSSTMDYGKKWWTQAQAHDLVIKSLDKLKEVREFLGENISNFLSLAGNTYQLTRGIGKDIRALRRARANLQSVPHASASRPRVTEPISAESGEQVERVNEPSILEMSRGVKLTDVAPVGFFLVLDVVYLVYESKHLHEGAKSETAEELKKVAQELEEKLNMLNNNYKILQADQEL
How it was run: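 Percent viability comes from AlamarBlue (resazurin→resorufin) fluorescence interpolated on a standard curve of known parasite numbers, with no-APOL1 wells as 100%. Parasites (Lister 427 bloodstream form, 120,000/well, serum-free assay medium) meet 0.05 μg/mL APOL1 (~EC90). Compounds span a 10-point series, 0.1% DMSO final.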

APOL1 = biological target: T2, APOL1 (Homo sapiens, UniProt O14791); experiment: Multi-Tox Assay (MultiTox-Fluor Multiplex Cytotoxicity Assay in tet-inducible APOL1 T-REx-HEK293 cells; Table 46 does not say which APOL1 variant G0/G1/G2); type: cell-based; details: APOL1 variant not given; for IC50: IP50 = IC50 for cell proliferation
T2 sequence (O14791 1-398 S342G/I384M): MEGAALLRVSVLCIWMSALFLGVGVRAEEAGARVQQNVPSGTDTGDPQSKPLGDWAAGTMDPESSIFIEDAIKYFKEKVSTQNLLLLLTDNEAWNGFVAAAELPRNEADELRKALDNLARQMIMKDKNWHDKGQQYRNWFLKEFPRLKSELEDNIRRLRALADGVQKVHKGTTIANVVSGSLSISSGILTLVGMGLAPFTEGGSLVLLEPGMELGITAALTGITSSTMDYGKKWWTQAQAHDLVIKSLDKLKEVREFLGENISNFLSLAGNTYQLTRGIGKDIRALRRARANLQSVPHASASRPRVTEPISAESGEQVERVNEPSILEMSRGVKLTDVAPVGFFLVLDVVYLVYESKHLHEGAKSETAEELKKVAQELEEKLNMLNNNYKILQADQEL

SMILES	IC50 (APOL1 G1) [µM]	IC50 (APOL1) [µM]	Emax (APOL1 G1) [%]	Multi-Tox Assay Max Activity (%) (APOL1)
Cc1cncc([C@@H]2C[C@]3(C[C@H](C)N2)OCCc2cc(Cl)sc23)c1 (racemic) [Compound 64]	< 0.05	< 0.05		
Cc1ncc([C@@H]2C[C@]3(C[C@H](C)N2)OCCc2cc(Cl)sc23)cn1 (racemic) [Compound 82]	< 0.05	< 0.05	106	
Cc1nc([C@@H]2C[C@]3(C[C@H](C)N2)OCCc2cc(Cl)sc23)oc1C (racemic) [Compound 144]	0.05 to 0.5	0.05 to 0.5	102	98.0
C[C@H]1C[C@@]2(C[C@@H](c3cn(C)c(=O)n(C)c3=O)N1)OCCc1cc(Cl)sc12 (racemic) [Compound 124]	0.05 to 0.5	0.05 to 0.5	104	99.3
C[C@H]1C[C@@]2(C[C@@H](c3cc4n(n3)CCCO4)N1)OCCc1cc(Cl)sc12 (racemic) [Compound 131]	0.05 to 0.5	0.05 to 0.5	111	99.3
C[C@@H]1CC2(C[C@H](C)N1)OCCc1sc(C(F)(F)F)cc12 (single isomer, unassigned) [Compound 196]	0.05 to 0.5	0.05 to 0.5	111	
CC1CC2(CC(c3cc(F)cc(C#N)c3)N1)OCCc1cc(Cl)sc12 (stereo not shown) [Compound 33]	< 0.05	< 0.05	111	
CC1CC2(CC(c3ccc4[nH]ncc4c3)N1)OCCc1cc(Cl)sc12 (stereo not shown) [Compound 35]	< 0.05	< 0.05	111	
C[C@H]1C[C@@]2(C[C@@H](c3cnn(CC(C)(CO)CO)c3)N1)OCCc1cc(Cl)sc12 (racemic) [Compound 103]	0.05 to 0.5	< 0.05	118	
C[C@H]1C[C@@]2(C[C@@H](c3cnn(C4CCOCC4)c3)N1)OCCc1cc(Cl)sc12 (racemic) [Compound 100]	< 0.05	< 0.05	99	
CC(=O)Nc1ccc([C@@H]2C[C@]3(C[C@H](C)N2)OCCc2cc(Cl)sc23)cc1 (racemic) [Compound 50]	< 0.05	< 0.05	103	99.7
C[C@H]1C[C@@]2(C[C@@H](c3cn(C)nn3)N1)OCCc1sc(C(F)(F)F)cc12 [Compound 8, (2′S,4S,6′S)-2′-methyl-6′-(1-methyltriazol-4-yl)-2-(trifluoromethyl)spiro[6,7-dihydrothieno[3,2-c]pyran-4,4′-piperidine]]	0.05 to 0.5	< 0.05	106	100.0
